This note sets out measurements from article PMC7827406, “Structure–Activity Relationship (SAR) Study of Spautin-1 to Entail the Discovery of Novel NEK4 Inhibitors” (International Journal of Molecular Sciences, 2021).

Common to all, as to experiment: biochemical
Common to all, as to parameters: Eurofins KinaseProfiler full panel at Km ATP, residual kinase activity (%) relative to DMSO

The target in assay [1] is Fes(h) (Homo sapiens, UniProt P07332). In outline: (§1)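 Compounds screened at 10 µM in radiometric kinase activity assays at Km ATP, reported as remaining kinase activity (%). A KINOMEscan competition-binding screen at 10 µM measured DNA-tagged kinase retained on immobilized active-site ligand by qPCR.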
Fes(h), sequence (P07332 whole entry): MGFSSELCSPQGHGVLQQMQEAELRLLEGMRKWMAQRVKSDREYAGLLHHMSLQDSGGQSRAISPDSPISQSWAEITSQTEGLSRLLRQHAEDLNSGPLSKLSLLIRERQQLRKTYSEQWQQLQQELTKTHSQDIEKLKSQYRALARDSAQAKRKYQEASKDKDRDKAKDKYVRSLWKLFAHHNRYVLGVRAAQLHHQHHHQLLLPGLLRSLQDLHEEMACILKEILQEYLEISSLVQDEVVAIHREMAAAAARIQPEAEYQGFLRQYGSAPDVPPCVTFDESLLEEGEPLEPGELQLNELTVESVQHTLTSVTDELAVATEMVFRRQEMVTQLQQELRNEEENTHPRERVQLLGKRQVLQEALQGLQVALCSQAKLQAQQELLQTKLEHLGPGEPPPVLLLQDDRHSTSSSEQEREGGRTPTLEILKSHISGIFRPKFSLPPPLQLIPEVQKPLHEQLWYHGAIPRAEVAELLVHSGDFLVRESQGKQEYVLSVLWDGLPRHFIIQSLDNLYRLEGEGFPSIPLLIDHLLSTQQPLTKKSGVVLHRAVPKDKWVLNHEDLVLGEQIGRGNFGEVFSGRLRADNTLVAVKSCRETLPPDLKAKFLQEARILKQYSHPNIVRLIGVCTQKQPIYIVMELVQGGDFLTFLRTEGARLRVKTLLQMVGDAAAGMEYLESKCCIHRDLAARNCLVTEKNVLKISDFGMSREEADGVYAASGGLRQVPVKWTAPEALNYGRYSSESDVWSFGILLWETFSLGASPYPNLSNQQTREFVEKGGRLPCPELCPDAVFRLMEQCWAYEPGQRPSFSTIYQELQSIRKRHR
For assay [2], the target named is T1, NEK11(h) (Homo sapiens, UniProt Q8NG66).
T1 sequence (Q8NG66 1-645): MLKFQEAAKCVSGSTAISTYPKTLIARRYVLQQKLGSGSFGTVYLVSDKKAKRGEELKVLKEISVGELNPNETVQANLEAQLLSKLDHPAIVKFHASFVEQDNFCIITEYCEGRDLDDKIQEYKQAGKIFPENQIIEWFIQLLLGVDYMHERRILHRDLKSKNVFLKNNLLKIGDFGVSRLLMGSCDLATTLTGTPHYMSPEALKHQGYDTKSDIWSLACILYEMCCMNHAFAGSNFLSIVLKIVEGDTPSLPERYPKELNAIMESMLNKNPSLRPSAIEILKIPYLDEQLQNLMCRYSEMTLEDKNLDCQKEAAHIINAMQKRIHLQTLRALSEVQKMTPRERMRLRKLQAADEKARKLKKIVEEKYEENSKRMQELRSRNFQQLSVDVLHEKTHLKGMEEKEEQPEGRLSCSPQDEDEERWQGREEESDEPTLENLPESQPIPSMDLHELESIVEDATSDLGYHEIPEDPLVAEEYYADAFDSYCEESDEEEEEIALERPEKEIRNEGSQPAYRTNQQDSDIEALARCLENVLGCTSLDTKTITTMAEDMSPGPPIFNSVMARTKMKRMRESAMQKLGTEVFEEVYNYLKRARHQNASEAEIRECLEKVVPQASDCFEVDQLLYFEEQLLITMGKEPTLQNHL
The gist of the method: as §1

Assay [3] has as its target T2, PI3 Kinase (p110a(E542K)/p85a)(h) (Homo sapiens, UniProt P42336, E542K).
T2 construct: gene PIK3CA
In outline: as §1

The target in assay [4] is T3, PI3KC2a(h) (Homo sapiens, UniProt O00443).
T3 construct: gene PIK3C2A
T3 sequence (O00443 whole entry): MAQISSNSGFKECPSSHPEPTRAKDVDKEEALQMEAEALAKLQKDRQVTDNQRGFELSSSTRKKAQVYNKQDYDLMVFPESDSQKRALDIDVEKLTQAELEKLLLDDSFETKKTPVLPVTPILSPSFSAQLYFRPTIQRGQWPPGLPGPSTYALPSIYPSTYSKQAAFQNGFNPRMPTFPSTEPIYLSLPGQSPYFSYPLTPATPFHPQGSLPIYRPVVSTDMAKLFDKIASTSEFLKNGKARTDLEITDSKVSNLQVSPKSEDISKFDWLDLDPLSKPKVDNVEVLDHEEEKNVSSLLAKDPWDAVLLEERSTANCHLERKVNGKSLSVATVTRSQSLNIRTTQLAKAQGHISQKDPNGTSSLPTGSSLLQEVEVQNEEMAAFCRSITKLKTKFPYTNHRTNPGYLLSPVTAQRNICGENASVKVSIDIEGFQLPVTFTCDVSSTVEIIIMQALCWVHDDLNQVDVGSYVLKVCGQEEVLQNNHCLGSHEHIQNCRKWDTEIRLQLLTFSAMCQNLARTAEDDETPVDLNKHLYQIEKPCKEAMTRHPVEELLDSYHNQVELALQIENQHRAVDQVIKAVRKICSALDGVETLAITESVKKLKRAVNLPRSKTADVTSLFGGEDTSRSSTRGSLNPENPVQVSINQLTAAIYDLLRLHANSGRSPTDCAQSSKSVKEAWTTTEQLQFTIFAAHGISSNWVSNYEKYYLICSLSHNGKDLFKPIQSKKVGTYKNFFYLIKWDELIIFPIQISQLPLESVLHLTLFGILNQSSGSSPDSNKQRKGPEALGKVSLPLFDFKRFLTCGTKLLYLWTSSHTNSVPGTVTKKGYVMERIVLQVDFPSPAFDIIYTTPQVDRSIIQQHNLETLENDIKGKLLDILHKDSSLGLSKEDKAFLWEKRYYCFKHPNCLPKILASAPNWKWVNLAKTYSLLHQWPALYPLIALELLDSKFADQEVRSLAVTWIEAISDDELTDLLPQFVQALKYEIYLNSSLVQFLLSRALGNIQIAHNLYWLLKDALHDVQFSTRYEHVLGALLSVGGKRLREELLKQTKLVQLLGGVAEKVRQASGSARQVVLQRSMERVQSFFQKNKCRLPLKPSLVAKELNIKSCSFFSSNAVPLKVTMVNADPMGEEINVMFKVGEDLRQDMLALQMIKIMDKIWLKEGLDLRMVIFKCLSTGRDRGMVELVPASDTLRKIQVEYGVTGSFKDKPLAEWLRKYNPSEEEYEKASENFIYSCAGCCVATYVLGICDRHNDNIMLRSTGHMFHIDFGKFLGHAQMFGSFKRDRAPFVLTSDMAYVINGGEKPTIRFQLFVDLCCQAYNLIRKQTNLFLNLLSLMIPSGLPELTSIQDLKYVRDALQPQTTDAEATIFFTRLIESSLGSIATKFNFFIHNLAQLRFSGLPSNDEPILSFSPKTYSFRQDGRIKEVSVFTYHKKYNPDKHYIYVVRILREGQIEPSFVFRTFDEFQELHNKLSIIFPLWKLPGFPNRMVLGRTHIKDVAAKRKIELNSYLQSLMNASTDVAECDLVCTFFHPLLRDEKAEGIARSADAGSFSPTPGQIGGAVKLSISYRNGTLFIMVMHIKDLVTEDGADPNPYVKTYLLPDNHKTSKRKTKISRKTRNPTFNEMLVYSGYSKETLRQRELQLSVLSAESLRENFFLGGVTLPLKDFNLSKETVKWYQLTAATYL
The gist of the method:
as §1

The target of assay [5] is T4, SNRK(h) (Homo sapiens, UniProt Q9NRH2).
T4 sequence (Q9NRH2 1-765): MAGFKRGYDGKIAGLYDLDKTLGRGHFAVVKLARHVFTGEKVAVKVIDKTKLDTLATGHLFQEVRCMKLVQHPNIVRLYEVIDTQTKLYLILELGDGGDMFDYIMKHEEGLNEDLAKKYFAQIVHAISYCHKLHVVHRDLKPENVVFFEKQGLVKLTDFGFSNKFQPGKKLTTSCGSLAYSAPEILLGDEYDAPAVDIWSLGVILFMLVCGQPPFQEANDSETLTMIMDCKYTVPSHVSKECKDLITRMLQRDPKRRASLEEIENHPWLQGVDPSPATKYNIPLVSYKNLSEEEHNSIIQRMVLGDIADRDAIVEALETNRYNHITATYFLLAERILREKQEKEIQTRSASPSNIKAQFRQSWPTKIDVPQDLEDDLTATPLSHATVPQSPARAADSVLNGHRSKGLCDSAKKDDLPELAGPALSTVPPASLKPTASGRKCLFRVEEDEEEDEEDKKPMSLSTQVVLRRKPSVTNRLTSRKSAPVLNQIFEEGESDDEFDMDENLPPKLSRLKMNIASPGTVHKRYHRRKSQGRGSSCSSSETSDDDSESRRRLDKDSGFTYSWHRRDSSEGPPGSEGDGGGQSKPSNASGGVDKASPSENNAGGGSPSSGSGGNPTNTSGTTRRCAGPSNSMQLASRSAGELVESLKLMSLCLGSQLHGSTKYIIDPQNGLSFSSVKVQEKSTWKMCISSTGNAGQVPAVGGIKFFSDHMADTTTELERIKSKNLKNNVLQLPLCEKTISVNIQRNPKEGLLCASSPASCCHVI
In outline:
as §1

[6] abbreviates: read-out: Residual activity (%) 5at.
Where [7] appears, read: read-out: Residual activity (%) 5ay.
[8] abbreviates: read-out: Residual activity (%) 5as.
Setting [9] is: read-out: Residual activity (%) Spautin-1 5aa.

Where two headings read alike, the source gives them in different places.

T2 sequence (P42336 whole entry E542K): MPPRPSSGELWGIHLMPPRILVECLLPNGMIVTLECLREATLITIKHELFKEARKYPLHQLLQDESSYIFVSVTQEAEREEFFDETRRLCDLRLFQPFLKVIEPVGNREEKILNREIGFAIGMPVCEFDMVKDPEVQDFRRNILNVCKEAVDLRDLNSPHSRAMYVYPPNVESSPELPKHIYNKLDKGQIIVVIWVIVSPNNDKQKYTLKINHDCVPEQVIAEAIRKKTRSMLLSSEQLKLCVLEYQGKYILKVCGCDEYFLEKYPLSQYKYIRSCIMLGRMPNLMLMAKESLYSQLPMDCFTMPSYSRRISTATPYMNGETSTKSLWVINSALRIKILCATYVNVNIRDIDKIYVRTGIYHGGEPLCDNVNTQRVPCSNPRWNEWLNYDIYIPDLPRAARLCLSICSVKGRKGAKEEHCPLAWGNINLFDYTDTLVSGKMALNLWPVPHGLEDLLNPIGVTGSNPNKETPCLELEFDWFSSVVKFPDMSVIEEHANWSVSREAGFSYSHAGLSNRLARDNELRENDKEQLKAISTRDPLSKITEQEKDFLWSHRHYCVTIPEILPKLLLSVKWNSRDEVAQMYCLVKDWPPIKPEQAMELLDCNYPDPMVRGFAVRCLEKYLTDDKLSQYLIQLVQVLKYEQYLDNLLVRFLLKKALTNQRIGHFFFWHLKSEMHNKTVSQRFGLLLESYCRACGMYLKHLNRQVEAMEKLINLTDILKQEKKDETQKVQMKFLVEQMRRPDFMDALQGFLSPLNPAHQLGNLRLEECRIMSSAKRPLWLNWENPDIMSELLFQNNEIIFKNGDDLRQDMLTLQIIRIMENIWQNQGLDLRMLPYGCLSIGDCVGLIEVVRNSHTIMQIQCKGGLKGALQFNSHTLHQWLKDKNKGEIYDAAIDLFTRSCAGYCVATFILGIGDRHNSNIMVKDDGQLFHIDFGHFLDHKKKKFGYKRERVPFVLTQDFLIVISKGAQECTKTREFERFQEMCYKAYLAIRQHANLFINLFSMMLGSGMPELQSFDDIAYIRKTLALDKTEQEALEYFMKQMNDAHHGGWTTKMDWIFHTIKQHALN
T2 sequence (P27986 whole entry partner): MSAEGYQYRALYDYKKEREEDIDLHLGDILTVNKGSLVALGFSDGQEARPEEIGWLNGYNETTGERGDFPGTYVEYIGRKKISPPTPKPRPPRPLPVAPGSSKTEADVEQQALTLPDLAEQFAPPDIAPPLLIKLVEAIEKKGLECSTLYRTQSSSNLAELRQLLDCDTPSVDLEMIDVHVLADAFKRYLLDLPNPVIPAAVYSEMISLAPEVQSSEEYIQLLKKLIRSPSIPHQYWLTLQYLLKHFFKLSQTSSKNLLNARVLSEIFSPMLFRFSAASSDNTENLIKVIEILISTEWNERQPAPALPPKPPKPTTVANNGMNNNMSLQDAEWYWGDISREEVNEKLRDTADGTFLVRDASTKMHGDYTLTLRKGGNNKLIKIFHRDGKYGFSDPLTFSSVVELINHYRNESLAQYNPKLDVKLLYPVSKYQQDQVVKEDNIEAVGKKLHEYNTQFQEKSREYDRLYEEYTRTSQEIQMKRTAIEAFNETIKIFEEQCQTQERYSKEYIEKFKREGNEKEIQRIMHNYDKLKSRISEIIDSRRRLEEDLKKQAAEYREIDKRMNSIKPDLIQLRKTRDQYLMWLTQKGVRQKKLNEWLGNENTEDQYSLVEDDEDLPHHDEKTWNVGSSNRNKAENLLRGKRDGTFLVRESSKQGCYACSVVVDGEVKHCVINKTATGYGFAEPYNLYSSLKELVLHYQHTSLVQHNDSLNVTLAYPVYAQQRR

Take `Fc1ccc2ncnc(NCCc3ccc(Cl)cc3)c2c1` [5at, N-[2-(4-Chlorophenyl)Ethyl]-6-Fluoro-4-Quinazolinamine]: the remaining activity at 10 µM was 81% in assay [1] (setting [6]); 45% in assay [2] (setting [6]); 93% in assay [3] (setting [6]); 105% in assay [4] (setting [6]); 103% in assay [5] (setting [6]).
Turning to `COc1ccc2ncnc(Nc3cccc(F)c3)c2c1` [5ay, N-(3-Fluorophenyl)-6-Methoxy-4-Quinazolinamine], the remaining activity at 10 µM in assay [1] (setting [7]) amounted to 93%; in assay [2] (setting [7]), 53%; in assay [3] (setting [7]), 88%; in assay [4] (setting [7]), 106%; in assay [5] (setting [7]), 79%.
With `Fc1ccc(CCNc2ncnc3ccc(F)cc23)cc1` [5as, 6-Fluoro-N-[2-(4-Fluorophenyl)Ethyl]-4-Quinazolinamine], the remaining activity at 10 µM was found to be 92% in assay [1] (setting [8]); 71% in assay [2] (setting [8]); 91% in assay [3] (setting [8]); 100% in assay [4] (setting [8]); 104% in assay [5] (setting [8]).
In the case of `Fc1ccc(CNc2ncnc3ccc(F)cc23)cc1` [5aa, 6-Fluoro-N-(4-fluorobenzyl)-4-Quinazolinamine], the remaining activity at 10 µM is 91% in assay [1] (setting [9]); 41% in assay [2] (setting [9]); 94% in assay [3] (setting [9]); 102% in assay [4] (setting [9]); 103% in assay [5] (setting [9]).
